# Patent US9604931B2, “Nuclear receptor binding agents” (GTx, Inc., priority 2007, dated 2017)
# Legend:
# ER-β = ER-β (Rattus norvegicus (Rat), UniProt Q62986); assay: ER-β transactivation (ERE-LUC) in COS or 293 cells; type: cell-based
# [1] = test system: Rat Aortic Smooth Muscle Cells (RASMC); assay: RASMC cell proliferation assay (WST-1); type: cell-based; settings: Rattus norvegicus, read-out: EC50 for inhibition of RASMC proliferation
# Procedure: EC50 values were calculated using WinNonLin 5.0.1 using the inhibitory effect sigmoid Emax model.
# ARPE-19 cells = assay: Fluorescent detection of intracellular ROS; type: cell-based, Human; settings: 150 μM tBH
# Source text: Cells were allowed to adhere overnight. […] Removed and washed cells once with HBSS. […] Each drug concentration was done in triplicates.
# [2] = test system: Ang II induced hypertension; assay: Angiotensin II model, blood pressure; type: in vivo, ovariectomized C57/BJ6 and ERβKO mice; parameters: Systolic pressure / Diastolic pressure: unit: mmHg; settings: for Diastolic pressure / Systolic pressure: Ang II
# Procedure: (§1) Thirty, ten week old female ovariectomized C57/BJ6 mice, were obtained from Harlan/Sprague Dawley and were housed in 12 hour on/off lighting and fed rodent chow devoid of soy or most plant products. Ovariectomized ERβ gene-deleted (ERβKO or ERβ-KO) mice were obtained from Ken Korach, NIEHS. The ERβ mice were originally created by Drs. Smithies, Gustafsson, and colleagues. All mice were identically housed and fed the same chow.
# (§2) This pellet is well documented to produce physiological levels of E2 in the serum of mice.
# Blood pressure was measured 4 times during the 21-day period, using the CODA non-invasive blood pressure measuring system (Kent Scientific, Torrington, Conn.). Measurements were done by volume pressure recordings of the tail.
# [3] = test system: Ang II induced left ventricular hypertrophy; assay: Angiotensin II model, cardiac hypertrophy; type: in vivo, ovariectomized C57/BJ6 and ERβKO mice; settings: 21 days
# Procedure: as §1, with “ERβKO” for “ERβ gene-deleted (ERβKO or ERβ-KO)”
# as §2
# At inception and after 21 days, the mice were weighed. Blood pressure was measured 4 times during the 21-day period, using the CODA non-invasive blood pressure measuring system. At 21 days the hearts were stopped in diastole by CdCl2 administration. The hearts were removed and weighed and the ratio of heart per total body weight was determined. Next, the hearts were dissected and the left ventricles were weighed and the ratio of left ventricle per total body weight was determined. […] For comparison ERβ gene-deleted mice were subjected to the same conditions of Ang II±E2 or the 12u compound. For histology, the hearts were and sectioned, and stained with hematoxylin and eosin, or Masson stain (for collagen)
# [4] = test system: Ang II induced cardiac fibrosis; assay: Angiotensin II model, cardiac fibrosis; type: in vivo, ovariectomized C57/BJ6 and ERβKO mice
# Procedure: as §1, with “ERβKO” for “ERβ gene-deleted (ERβKO or ERβ-KO)”
# as §2
# Left ventricular tissues were fixed in 4% paraformaldehyde solution. Paraffin-embedded tissue sections (5 um) were stained with Masson's trichrome for the presence of interstitial collagen fiber accumulation indicative of cardiac fibrosis. The ratio of interstitial fibrosis to the total left ventricular area was calculated from 10 randomly selected microscopic fields from each of five sections per heart using NIH imageJ analysis software (n=5 mice per condition). Further quantification of collagen deposition was made by ventricular content of hydroxyproline, a breakdown product of collagen, determined by a modified method of Bergman and Loxley (19). The ventricular tissues were homogenized and hydrolyzed in 6 N HCl at 110° C. for 24 h in a sealed reaction vial. The sample was dried and the residue re-suspended in sterile water. 0.5 ml of chloramine T was added for 5 min, then Ehrlich's reagent (3 ml) was added and the mixture left for 18 h at room temperature. The intensity of the red coloration that developed was measured by a spectrophotometer at 558 nm.
# SHP promoter = assay: SHP promoter-luciferase assay in HEK-293 cells; type: cell-based
# Procedure: FIG. 12 depicts the effect of ER-β ligand on PPAR-γ function through ligand binding domain (LBD). (A). HEK-293 cells were transfected with 0.25 μg PPRE-LUC, 5 ng CMV-renilla LUC and the indicated receptors (PPAR-γ and ER-β for the left panel and PPAR-α and ER-β for the right panel). The cells were treated 24 hrs after transfection with the indicated ligands and harvested 48 hrs after transfection and firefly luciferase activity was measured and normalized to renilla luciferase. (B). H475 in ER-β LBD is important for its function. H475 in ER-β LBD was mutated to alanine (A) using a site directed mutagenesis kit. Transactivation assay was performed as described in panel A in HEK-293 cells with a titration of ER-β ligands in wild type (WT) or ER-β H475A. (C). […] HEK-293 cells were transfected with 0.25 μg PPRE-LUC, 5 ng CMV-renilla LUC and 50 ng of the indicated receptors (PPAR-γ or PPAR-γ and wild type ER-β or PPAR-γ and ER-β H475A). The cells were treated 24 hrs after transfection with the indicated ligands and harvested 48 hrs after transfection and firefly luciferase activity was measured and normalized to renilla luciferase. (D). […] HepG2 cells were transfected with 0.25 μg PPRE-LUC, 5 ng CMV-renilla LUC, 0.5 μg PGC-1 or vector backbone and 100 ng of the indicated receptors (PPAR-γ or PPAR-γ and wild type ER-β or PPAR-γ and ER-β H475A for top panels and PPAR-α or PPAR-α and ER-β for bottom panel). The cells were treated 24 hrs after transfection with the indicated ligands and harvested 48 hrs after transfection and firefly luciferase activity was measured and normalized to renilla luciferase. (E). SHP-1 is an ER-β specific target gene. HEK-293 cells were transfected with 0.25 μg SHP-LUC, 5 ng CMV-renilla LUC and 50 ng of the indicated receptors (FXR and ER-α for the left panel and FXR and ER-β for the right panel). The cells were treated 24 hrs after transfection with the indicated ligands and harvested 48 hrs after transfection and firefly luciferase activity was measured and normalized to renilla luciferase. PPAR—peroxisome proliferator and activated receptor; ER—estrogen receptor; H—histidine; A—alanine; RLU—relative luciferase units; Tro—troglitazone; PGC-1—PPAR-γ coactivator; SHP—small heterodimer partner; FXR—farsenoid X receptor.
# Human estrogen receptors (ER-α and ER-β) were cloned from prostate cDNA into a pCR3.1 plasmid vector backbone. PGC-1 was cloned into mammalian two hybrid vector pACT. ER-β H475 was mutated to alanine using site-directed mutagenesis. Sequencing was performed to determine the absence of any non specific mutations. SHP promoter (−572 to +10) (26) was cloned into pGL3 basic LUC reporter vector and human FXR was cloned into pCR3.1. […]
# [5] = target: ERα ligand binding domain (Homo sapiens, UniProt P03372); assay: Competitive [3H]-estradiol binding assay, ER-α (Example 21); settings: 100 nM of compound; read-out: Percent Inhibition of [3H]-Estradiol Binding to ER-α
# Chain of ERα ligand binding domain (P03372 whole entry, looked up, the tested form may be a part): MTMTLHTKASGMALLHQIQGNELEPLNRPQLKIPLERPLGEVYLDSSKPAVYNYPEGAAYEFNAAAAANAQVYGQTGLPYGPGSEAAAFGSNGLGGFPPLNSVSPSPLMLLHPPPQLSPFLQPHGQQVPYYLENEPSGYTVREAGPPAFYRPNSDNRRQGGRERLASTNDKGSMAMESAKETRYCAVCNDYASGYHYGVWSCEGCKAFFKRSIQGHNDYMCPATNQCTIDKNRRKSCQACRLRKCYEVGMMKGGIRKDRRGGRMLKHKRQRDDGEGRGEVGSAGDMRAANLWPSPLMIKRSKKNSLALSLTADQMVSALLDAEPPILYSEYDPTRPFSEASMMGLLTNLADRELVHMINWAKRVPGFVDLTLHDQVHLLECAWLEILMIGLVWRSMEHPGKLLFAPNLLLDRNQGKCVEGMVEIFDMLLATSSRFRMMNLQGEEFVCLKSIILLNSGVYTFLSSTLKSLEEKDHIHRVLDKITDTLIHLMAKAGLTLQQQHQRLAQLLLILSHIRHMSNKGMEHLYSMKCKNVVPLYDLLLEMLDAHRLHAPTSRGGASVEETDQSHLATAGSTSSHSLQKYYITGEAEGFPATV
# Procedure: (§3) ER binding affinity was determined via one of the following methods:
# (§4) Briefly, the incubation mixture was filtered through a high affinity protein binding filter, and washed several times to remove any unbound radioactivity. The filter plate was air dried and sealed on the bottom.
# (§5) Nonspecific binding was subtracted from total binding to yield specific binding.
# [6] = target: ERβ ligand binding domain (Homo sapiens, UniProt Q92731); assay: Competitive [3H]-estradiol binding assay, ER-β (Example 21)
# Chain of ERβ ligand binding domain (Q92731 whole entry, looked up, the tested form may be a part): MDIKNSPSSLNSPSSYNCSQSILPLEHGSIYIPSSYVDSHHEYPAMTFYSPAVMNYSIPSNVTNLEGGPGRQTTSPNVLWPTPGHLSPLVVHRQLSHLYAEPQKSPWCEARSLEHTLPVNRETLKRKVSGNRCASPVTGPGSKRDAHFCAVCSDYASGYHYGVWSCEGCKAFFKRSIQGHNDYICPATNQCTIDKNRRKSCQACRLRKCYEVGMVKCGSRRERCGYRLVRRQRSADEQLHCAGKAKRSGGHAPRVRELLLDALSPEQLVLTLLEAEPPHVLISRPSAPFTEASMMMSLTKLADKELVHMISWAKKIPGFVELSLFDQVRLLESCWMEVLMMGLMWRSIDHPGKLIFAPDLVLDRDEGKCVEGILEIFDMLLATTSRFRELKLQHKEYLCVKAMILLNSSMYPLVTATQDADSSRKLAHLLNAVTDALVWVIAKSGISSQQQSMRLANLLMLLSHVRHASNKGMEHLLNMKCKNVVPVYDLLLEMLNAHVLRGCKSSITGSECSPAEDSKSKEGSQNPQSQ
# Procedure: as §3, §4, §5
# ER-α = ER-α (Rattus norvegicus (Rat), UniProt P06211); type: cell-based
# Procedure: COS or 293 cells were plated in DME without phenol red+10% cs FBS at 90,000 cells per well in 24 well plates, and were transfected with 0.25 μg of the vector “ERE-LUC”, where a firefly luciferase gene was driven by two estrogen responsive elements and 0.02 μg of the control CMV-LUC, Renilla where a luciferase gene was driven by a CMV promoter. […] All the receptors were cloned from rat tissue into the PCR3.1 vector backbone. Twenty four hours post transfection, cells were treated with compounds of this invention, estrogen, DHT, and other NRBAs or combinations thereof. Cells were harvested 48 hrs after transfection, and assayed for firefly and Renilla luciferase activity.
# [7] = test system: LPS induced THP-1 macrophage cell adhesion to bEND-3 endothelial cells; assay: Macrophage adhesion assay; type: cell-based
# Procedure: To determine the anti-inflammatory effects of ER-β NRBAs in vitro, a macrophage adhesion assay was performed. Macrophages adhere to endothelial cells due to elevated levels of pro-inflammatory cytokines. This principle was used in this assay to determine the effect of one of the ER-NRBAs on bacterial lipopolysaccharide (LPS) induced THP-1 macrophage cell adhesion to bEND-3 endothelial cells.
# rat aorta rings = assay: Rat aortic ring relaxation; settings: 10^-6 PE constriction
# Source text: Experimental protocol. Equipment used in these studies included a 4-tissue bath system with reservoirs and circulators (RadnotiGlass Technology, Monrovia, Calif.), DSI/Ponemah tissue force analyzer 7700 (Valley View, Ohio), and iWorx/CB Sciencesforce transducers FT-302. The 250 g rats were anesthetized with isoflurane to produce deep anesthesia. The chest of the rat was opened, and about 3 cm length of aorta was removed and placed in a Petri dish containing room temperature Krebs salt solution (KSS, in mM: 120 NaCl, 5 KCl, 1.2 MgSO4.7H20, 2.5 CaCl2.2H2O, 1 KH2PO4, 25 NaHCO3, and 11 glucose). Fat and connective tissue were removed from the aorta taking care not to stretch the vessel. The aorta was then divided into 3-mm-wide rings. Triangular wire holders were inserted through the lumen of the vessel and connected to the force transducer and tissue holder rod in the vessel bath.
# Analog-to-digital conversions of force waveforms were accomplished with a DSI/Ponemah tissue force analyzer 7700. The converted data were automatically analyzed with Ponemah Physiology-Smooth Muscle software. All data are summarized as means±standard error. Differences between means were assessed by a conventional ANOVA. This was followed by Student's test. P<0.05 was considered to be statistically significant.
# The tension on the rings was adjusted to 1.0 g passive force using the tension adjustment dial for each transducer and allowed to equilibrate for 60 min in the bath with a 95% O2-5% CO2 gas mixture. The rings were washed with fresh buffer every 20 min. Passive force was readjusted to 1.0 g as needed during this period. When rings were stable at 1.0 g of passive force, the baseline was calculated.
# Phenylephrine (PE) at a final concentration of […] was added to the bath to contract the ring, and force was allowed to stabilize for 10 min. Then acetylcholine (ACH) at a final concentration of 10^−5 M was added to the precontracted rings to test for endothelial integrity […]. After the initial test for vessel viability and endothelial integrity, the rings were washed three times for 10 min with buffer, allowing it to equilibrate to active force stabilized at 1 g.
# Cumulative concentration-response curves to NRBAs were created by increasing the NRBAs concentration in the tissue bath by successive addition of appropriate dilutions of stock solutions to achieve final bath concentrations of 300 nM to 0.15 mM NRBAs.
# Table 10 summarizes EC50 values and maximal % decrease of the 10^−6 PE constriction of the aortic ring for individual NRBAs tested
# Chain of ER-β (Q62986 whole entry): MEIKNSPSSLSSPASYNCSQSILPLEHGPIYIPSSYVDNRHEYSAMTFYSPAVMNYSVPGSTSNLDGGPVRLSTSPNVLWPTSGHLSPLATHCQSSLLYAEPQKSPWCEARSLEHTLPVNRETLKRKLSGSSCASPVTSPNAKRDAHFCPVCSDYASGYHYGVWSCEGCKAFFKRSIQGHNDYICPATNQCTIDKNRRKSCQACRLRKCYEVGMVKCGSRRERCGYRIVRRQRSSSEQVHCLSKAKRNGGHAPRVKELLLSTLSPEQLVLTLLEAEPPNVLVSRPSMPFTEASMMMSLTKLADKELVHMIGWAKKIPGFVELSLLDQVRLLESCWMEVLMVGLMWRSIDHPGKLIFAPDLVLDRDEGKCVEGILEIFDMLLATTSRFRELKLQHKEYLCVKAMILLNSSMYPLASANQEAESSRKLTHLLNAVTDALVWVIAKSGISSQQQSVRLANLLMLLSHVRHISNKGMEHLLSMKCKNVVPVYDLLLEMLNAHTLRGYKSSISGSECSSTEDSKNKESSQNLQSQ
smiles,measurement,setting,value
"C[C@]12CC[C@@H]3c4ccc(O)cc4CC[C@H]3[C@@H]1CC[C@@H]2O [Estradiol, reference compound]",ER-β RLU/RenRLU,ER-β; dose 1 nM,0.48 RLU/RenRLU
same,EC50,[1],36.4 µM
same,Reduction in ROS formation,ARPE-19 cells; 100 nM,approximately 30%
same,"Ang II induced hypertension, diastolic pressure","[2]; ERβ-KO mice, 21 days",unchanged
same,"Ang II induced hypertension, systolic pressure","[2]; ERβ-KO mice, 21 days",mildly reduced
same,Diastolic pressure,"[2]; ERβKO, 7 days",95
same,Systolic pressure,"[2]; ERβKO, 7 days",149
same,Diastolic pressure,"[2]; ERβKO, 14 days",98
same,Systolic pressure,"[2]; ERβKO, 14 days",143
same,Diastolic pressure,"[2]; ERβKO, 21 days",96
same,Systolic pressure,"[2]; ERβKO, 21 days",145
same,Diastolic pressure,"[2]; ERβKO, time 0",86
same,Systolic pressure,"[2]; ERβKO, time 0",126
same,Diastolic pressure,"[2]; WT, 7 days",82
same,Systolic pressure,"[2]; WT, 7 days",121
same,Diastolic pressure,"[2]; WT, 14 days",86
same,Systolic pressure,"[2]; WT, 14 days",124
same,Diastolic pressure,"[2]; WT, 21 days",88
same,Systolic pressure,"[2]; WT, 21 days",131
same,Diastolic pressure,"[2]; WT, time 0",85
same,Systolic pressure,"[2]; WT, time 0",123
same,Ang II induced hypertension,"[2]; wildtype mice, 21 days",largely prevented
same,Ang II induced increase in heart size and total heart weight,[3],prevented the increased size
same,Ang II induced left ventricular hypertrophy (LVW/BW),[3]; wildtype but not ERβKO mice,largely prevented
same,Ventricular hydroxyproline content,"[4]; WT mice, not ERβKO",significantly inhibited the hydroxyproline content
same,Ang II induced cardiac fibrosis (interstitial collagen),[4]; only in WT mice,significantly inhibited fibrosis
"CC(C)c1onc(-c2c(Cl)cccc2Cl)c1COc1ccc(/C=C/c2cccc(C(=O)O)c2)c(Cl)c1 [GW4064, reference compound]",SHP promoter activity,SHP promoter; transfected with FXR and ER-β,increased its activity significantly
"CCCc1c(-c2ccc(O)cc2)nn(-c2ccc(O)cc2)c1-c1ccc(O)cc1 [PPT, 1,3,5-tris(4-hydroxyphenyl)-4-propyl-1H-pyrazole, reference compound]",SHP promoter activity,SHP promoter; transfected with FXR and ER-α,increased SHP activity
"O=c1c2c(O)cc(O)cc2c(Cl)cn1-c1ccc(O)cc1 [12y, 4-chloro-6,8-dihydroxy-2-(4-hydroxyphenyl)isoquinolin-1(2H)-one]",inhibition at 0.1 µM,[5],51.9%
same,Ki Ratio (ER-α/ER-β),[6],11
same,inhibition at 0.1 µM,[6]; read-out: Percent Inhibition of [3H]-Estradiol Binding to ER-β,97.5%
same,Classification as ER-α agonist,ER-α,ER-α agonists
same,ER-β agonist activity,ER-β,ER-β agonist activity
same,Adhesion of 3H labeled THP-1 cells to bEND-3 cells,[7],significantly inhibited
same,Mean of Maximal % Decrease of the PE constriction of the aortic ring,rat aorta rings,80.63%
same,EC50,rat aorta rings; Rattus norvegicus,13.2 µM
same,Inhibition of ROS formation,ARPE-19 cells,more than 50%
same,Prevention of ROS formation / oxidative stress,ARPE-19 cells,protected ARPE-19 cells from oxidative damage
